Measured values: ChEMBL document CHEMBL3046041, “3D QSAR kNN-MFA studies on thiouracil derivatives as hepatitis C virus inhibitors” (Med Chem Res, 2011)
pIC50: −log10 of the molar value.

The compounds below were run against RNA-directed RNA polymerase (Hepacivirus hominis, UniProt O39930) (assay: Inhibition of Hepatitis C virus NS5B RNA-dependent RNA polymerase). Details: read-out: IC50.
Chain of RNA-directed RNA polymerase (O39930 whole entry): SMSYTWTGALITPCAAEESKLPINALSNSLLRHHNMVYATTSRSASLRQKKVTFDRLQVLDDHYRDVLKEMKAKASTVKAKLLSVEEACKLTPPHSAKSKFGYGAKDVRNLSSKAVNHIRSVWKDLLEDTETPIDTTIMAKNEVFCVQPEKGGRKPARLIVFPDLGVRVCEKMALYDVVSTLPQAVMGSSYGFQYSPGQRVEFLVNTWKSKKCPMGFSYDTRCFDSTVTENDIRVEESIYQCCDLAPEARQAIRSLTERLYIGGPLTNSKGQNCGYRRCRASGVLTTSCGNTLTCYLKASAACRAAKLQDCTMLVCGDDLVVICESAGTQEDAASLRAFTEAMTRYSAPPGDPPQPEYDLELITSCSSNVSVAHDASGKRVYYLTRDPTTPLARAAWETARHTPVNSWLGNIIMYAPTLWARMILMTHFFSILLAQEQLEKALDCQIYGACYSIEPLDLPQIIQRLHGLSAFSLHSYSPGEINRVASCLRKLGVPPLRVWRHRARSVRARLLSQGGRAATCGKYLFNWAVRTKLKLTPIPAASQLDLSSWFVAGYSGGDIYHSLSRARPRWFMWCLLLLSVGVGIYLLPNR

Row | Structure (SMILES) | pIC50
1 | N#Cc1c(-c2ccc(Br)cc2)nc(SCc2ccccc2Br)[nH]c1=O | 5.00
2 | COc1cc(CSc2nc(-c3cccc(C)c3)c(C#N)c(=O)[nH]2)cc(OC)c1 | 4.52
3 | COc1cc(CSc2nc(-c3ccccc3C)c(C#N)c(=O)[nH]2)cc(OC)c1 | 4.60
4 | Cc1ccccc1-c1nc(SCc2ccccc2Br)[nH]c(=O)c1C#N | 4.49
5 | N#Cc1c(-c2ccccc2C(F)(F)F)nc(SCc2ccccc2Br)[nH]c1=O | 4.68
6 | Cc1cccc(CSc2nc(-c3ccc(C(C)C)cc3)c(C#N)c(=O)[nH]2)c1 | 4.92
7 | CC(C)c1ccc(-c2nc(SCc3cccc([N+](=O)[O-])c3)[nH]c(=O)c2C#N)cc1 | 5.00
8 | CCCCCSc1nc(-c2cccc(C(F)(F)F)c2)c(C#N)c(=O)[nH]1 | 4.92
9 | COc1cc(CSc2nc(-c3ccc(F)cc3F)c(C#N)c(=O)[nH]2)cc(OC)c1 | 4.72
10 | Cc1cccc(CSc2nc(-c3ccc(F)cc3F)c(C#N)c(=O)[nH]2)c1 | 4.24
11 | N#Cc1c(-c2ccc(F)cc2F)nc(SCc2ccccc2Br)[nH]c1=O | 4.89
12 | N#Cc1c(-c2ccc(F)cc2F)nc(SCc2cccc([N+](=O)[O-])c2)[nH]c1=O | 4.49
13 | COc1cc(CSc2nc(-c3ccc(Cl)cc3Cl)c(C#N)c(=O)[nH]2)cc(OC)c1 | 4.47
14 | N#Cc1c(-c2ccc(Cl)cc2Cl)nc(SCc2ccc(OC(F)(F)F)cc2)[nH]c1=O | 4.96
15 | COc1cc(CSc2nc(-c3ccc(Br)cc3)c(C#N)c(=O)[nH]2)cc(OC)c1 | 4.89
16 | N#Cc1c(-c2ccc(Br)cc2)nc(SCc2cccc([N+](=O)[O-])c2)[nH]c1=O | 4.85
17 | N#Cc1c(-c2ccc(Br)cc2)nc(SCc2ccccc2C(F)(F)F)[nH]c1=O | 5.15
18 | N#Cc1c(-c2ccc(Br)cc2)nc(SCc2ccc(OC(F)(F)F)cc2)[nH]c1=O | 5.06
19 | Cc1cccc(CSc2nc(-c3cccc(C)c3)c(C#N)c(=O)[nH]2)c1 | 4.66
20 | Cc1cccc(-c2nc(SCc3cccc([N+](=O)[O-])c3)[nH]c(=O)c2C#N)c1 | 4.70
21 | Cc1cccc(-c2nc(SCc3ccc(OC(F)(F)F)cc3)[nH]c(=O)c2C#N)c1 | 5.07
22 | COc1cc(CSc2nc(-c3cccc(C(F)(F)F)c3)c(C#N)c(=O)[nH]2)cc(OC)c1 | 4.96
23 | Cc1cccc(CSc2nc(-c3cccc(C(F)(F)F)c3)c(C#N)c(=O)[nH]2)c1 | 4.85
24 | N#Cc1c(-c2cccc(C(F)(F)F)c2)nc(SCc2cccc([N+](=O)[O-])c2)[nH]c1=O | 4.89
25 | Cc1cccc(CSc2nc(-c3ccccc3C)c(C#N)c(=O)[nH]2)c1 | 4.85

Row | Structure (SMILES) | pIC50
26 | Cc1ccccc1-c1nc(SCc2cccc([N+](=O)[O-])c2)[nH]c(=O)c1C#N | 4.43
27 | COc1cc(CSc2nc(-c3cc(F)cc(F)c3)c(C#N)c(=O)[nH]2)cc(OC)c1 | 4.82
28 | Cc1cccc(CSc2nc(-c3cc(F)cc(F)c3)c(C#N)c(=O)[nH]2)c1 | 4.57
29 | COc1cc(CSc2nc(-c3ccccc3C(F)(F)F)c(C#N)c(=O)[nH]2)cc(OC)c1 | 4.92
30 | Cc1cccc(CSc2nc(-c3ccccc3C(F)(F)F)c(C#N)c(=O)[nH]2)c1 | 4.85
31 | N#Cc1c(-c2ccccc2C(F)(F)F)nc(SCc2ccc(OC(F)(F)F)cc2)[nH]c1=O | 5.04
32 | COc1cc(CSc2nc(-c3cc(Cl)cc(Cl)c3)c(C#N)c(=O)[nH]2)cc(OC)c1 | 4.47
33 | Cc1cccc(CSc2nc(-c3cc(Cl)cc(Cl)c3)c(C#N)c(=O)[nH]2)c1 | 4.54
34 | COc1cc(CSc2nc(-c3ccc(C(C)C)cc3)c(C#N)c(=O)[nH]2)cc(OC)c1 | 4.60
35 | CC(C)c1ccc(-c2nc(SCc3ccccc3Br)[nH]c(=O)c2C#N)cc1 | 5.42
36 | CC(C)c1ccc(-c2nc(SCc3ccc(OC(F)(F)F)cc3)[nH]c(=O)c2C#N)cc1 | 5.00
37 | CCCCCSc1nc(-c2ccc(F)cc2F)c(C#N)c(=O)[nH]1 | 4.92
38 | CCCCCSc1nc(-c2ccc(Cl)cc2Cl)c(C#N)c(=O)[nH]1 | 4.77
39 | N#Cc1c(-c2ccc(Cl)cc2Cl)nc(SCCCc2ccccc2)[nH]c1=O | 4.92
40 | CCCCCSc1nc(-c2ccc(Br)cc2)c(C#N)c(=O)[nH]1 | 4.96
41 | N#Cc1c(-c2ccc(Br)cc2)nc(SCCC(=O)Oc2ccccc2)[nH]c1=O | 4.52
42 | N#Cc1c(-c2ccc(Br)cc2)nc(SCC2CCCCO2)[nH]c1=O (stereo unspecified) | 4.30
43 | CCCCCSc1nc(-c2cccc(C)c2)c(C#N)c(=O)[nH]1 | 4.74
44 | N#Cc1c(-c2cccc(C(F)(F)F)c2)nc(SCCC(=O)Oc2ccccc2)[nH]c1=O | 4.89
45 | CCCCCSc1nc(-c2ccccc2C)c(C#N)c(=O)[nH]1 | 4.74
46 | CCCCCSc1nc(-c2ccccc2C(F)(F)F)c(C#N)c(=O)[nH]1 | 4.70
47 | CCCCCSc1nc(-c2ccc(C(C)C)cc2)c(C#N)c(=O)[nH]1 | 4.92
48 | CC(C)c1ccc(-c2nc(SCC3CCCCO3)[nH]c(=O)c2C#N)cc1 (stereo unspecified) | 4.77
49 | Cc1cccc(CSc2nc(-c3ccc(Cl)cc3Cl)c(C#N)c(=O)[nH]2)c1 | 4.48
50 | Cc1cccc(CSc2nc(-c3ccc(Br)cc3)c(C#N)c(=O)[nH]2)c1 | 4.96

Same assay, conditions: read-out: pIC50 (converted)

Row | Structure (SMILES) | IC50 [µM]
51 | N#Cc1c(-c2ccc(Br)cc2)nc(SCc2ccccc2C(F)(F)F)[nH]c1=O | 7.24
